Targets include Cytochrome P450 2C19 (Homo sapiens, UniProt P33261); Cytochrome P450 2D6 (Homo sapiens, UniProt P10635); Cytochrome P450 3A4 (Homo sapiens, UniProt P08684).
For a further experiment, the target named is T1, Estrogen receptor (Homo sapiens, UniProt P03372).
T1 sequence (P03372 whole entry): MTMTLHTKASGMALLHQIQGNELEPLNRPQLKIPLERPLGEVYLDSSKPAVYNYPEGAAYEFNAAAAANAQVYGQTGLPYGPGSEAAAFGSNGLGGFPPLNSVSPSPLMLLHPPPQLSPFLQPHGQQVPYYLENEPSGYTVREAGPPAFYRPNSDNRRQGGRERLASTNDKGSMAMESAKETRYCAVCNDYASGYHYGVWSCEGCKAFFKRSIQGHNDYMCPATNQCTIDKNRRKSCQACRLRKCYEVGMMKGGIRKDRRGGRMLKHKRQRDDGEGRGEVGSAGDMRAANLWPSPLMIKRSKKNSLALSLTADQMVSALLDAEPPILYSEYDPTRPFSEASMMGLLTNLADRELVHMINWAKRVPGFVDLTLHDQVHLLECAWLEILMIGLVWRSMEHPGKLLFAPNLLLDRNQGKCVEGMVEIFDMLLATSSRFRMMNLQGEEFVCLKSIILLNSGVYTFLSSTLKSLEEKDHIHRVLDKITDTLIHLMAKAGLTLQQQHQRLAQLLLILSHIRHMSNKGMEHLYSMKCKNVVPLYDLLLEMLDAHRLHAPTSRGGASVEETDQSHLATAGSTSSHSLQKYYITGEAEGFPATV
Nature of the experiment: biochemical.

In a further experiment the target is T2, Cytochrome P450 1A2 (Homo sapiens, UniProt P05177).
T2 sequence (P05177 whole entry): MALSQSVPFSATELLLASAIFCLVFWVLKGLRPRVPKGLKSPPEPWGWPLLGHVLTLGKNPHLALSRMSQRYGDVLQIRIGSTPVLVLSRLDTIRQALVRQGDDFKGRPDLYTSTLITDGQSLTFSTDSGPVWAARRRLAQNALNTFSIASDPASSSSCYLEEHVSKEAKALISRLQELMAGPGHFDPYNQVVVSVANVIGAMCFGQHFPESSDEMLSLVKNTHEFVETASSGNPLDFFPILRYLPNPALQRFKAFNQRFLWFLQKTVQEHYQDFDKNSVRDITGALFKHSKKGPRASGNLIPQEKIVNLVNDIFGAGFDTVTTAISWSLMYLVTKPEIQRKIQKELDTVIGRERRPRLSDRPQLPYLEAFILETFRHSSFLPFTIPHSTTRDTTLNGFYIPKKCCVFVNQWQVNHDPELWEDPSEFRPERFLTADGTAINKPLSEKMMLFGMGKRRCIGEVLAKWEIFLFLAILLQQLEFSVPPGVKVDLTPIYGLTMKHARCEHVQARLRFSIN

Another experiment addresses T3, Glucocorticoid receptor (Homo sapiens, UniProt P04150).
T3 sequence (P04150 whole entry): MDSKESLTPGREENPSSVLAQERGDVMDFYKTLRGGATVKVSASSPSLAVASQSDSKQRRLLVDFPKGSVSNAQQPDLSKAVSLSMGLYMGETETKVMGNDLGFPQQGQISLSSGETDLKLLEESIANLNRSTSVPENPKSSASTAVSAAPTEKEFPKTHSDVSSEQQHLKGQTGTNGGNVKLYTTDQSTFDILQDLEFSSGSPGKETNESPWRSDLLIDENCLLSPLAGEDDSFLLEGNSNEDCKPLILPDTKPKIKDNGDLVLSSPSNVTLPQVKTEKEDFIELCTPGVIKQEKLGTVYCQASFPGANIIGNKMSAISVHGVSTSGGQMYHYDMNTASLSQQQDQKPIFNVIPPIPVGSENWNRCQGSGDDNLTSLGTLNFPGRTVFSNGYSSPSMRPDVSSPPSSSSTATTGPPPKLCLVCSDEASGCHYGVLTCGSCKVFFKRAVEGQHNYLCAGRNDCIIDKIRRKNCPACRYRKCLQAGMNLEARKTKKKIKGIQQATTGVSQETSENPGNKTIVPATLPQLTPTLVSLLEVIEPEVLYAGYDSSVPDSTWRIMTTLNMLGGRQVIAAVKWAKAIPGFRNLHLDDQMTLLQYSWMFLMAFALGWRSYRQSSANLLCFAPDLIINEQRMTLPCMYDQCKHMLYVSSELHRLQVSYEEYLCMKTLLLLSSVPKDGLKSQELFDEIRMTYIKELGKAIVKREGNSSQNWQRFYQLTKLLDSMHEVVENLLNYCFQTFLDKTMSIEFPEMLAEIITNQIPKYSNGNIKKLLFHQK
Nature of the experiment: biochemical.

The target in another experiment is T4, Androgen receptor (Rattus norvegicus, UniProt P15207).
T4 sequence (P15207 whole entry): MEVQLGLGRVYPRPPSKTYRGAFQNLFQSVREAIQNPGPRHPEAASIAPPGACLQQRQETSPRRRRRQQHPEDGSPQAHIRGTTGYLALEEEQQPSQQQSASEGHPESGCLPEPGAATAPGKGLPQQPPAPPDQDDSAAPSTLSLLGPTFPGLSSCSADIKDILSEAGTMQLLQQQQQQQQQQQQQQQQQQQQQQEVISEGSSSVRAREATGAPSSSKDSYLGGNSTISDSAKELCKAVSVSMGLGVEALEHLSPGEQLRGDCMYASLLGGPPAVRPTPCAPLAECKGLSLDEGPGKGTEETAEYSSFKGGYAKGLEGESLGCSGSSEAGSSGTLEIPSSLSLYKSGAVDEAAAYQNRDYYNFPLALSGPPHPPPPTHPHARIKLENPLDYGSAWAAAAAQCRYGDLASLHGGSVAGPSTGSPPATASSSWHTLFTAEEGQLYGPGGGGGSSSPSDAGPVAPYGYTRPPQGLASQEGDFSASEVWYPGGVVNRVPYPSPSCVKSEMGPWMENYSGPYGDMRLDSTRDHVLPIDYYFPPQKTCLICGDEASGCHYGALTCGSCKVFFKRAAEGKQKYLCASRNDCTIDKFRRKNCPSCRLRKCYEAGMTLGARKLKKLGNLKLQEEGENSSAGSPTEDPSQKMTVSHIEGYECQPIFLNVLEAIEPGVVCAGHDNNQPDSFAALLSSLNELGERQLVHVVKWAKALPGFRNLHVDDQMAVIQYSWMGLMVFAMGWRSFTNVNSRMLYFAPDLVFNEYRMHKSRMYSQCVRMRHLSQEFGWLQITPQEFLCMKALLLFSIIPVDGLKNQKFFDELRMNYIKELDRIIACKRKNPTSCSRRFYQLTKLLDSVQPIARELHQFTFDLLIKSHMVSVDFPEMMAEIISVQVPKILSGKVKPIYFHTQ

Each structure is given as a SMILES string.

The IC50 is the concentration at which inhibition is half-maximal. A low value points to inhibition by little substance. Usually Ki stands for a dissociation constant, usually derived from enzyme kinetics or from competition with a known ligand. Lower therefore signals higher affinity.

Sequence of Cytochrome P450 2C19 (P33261 whole entry): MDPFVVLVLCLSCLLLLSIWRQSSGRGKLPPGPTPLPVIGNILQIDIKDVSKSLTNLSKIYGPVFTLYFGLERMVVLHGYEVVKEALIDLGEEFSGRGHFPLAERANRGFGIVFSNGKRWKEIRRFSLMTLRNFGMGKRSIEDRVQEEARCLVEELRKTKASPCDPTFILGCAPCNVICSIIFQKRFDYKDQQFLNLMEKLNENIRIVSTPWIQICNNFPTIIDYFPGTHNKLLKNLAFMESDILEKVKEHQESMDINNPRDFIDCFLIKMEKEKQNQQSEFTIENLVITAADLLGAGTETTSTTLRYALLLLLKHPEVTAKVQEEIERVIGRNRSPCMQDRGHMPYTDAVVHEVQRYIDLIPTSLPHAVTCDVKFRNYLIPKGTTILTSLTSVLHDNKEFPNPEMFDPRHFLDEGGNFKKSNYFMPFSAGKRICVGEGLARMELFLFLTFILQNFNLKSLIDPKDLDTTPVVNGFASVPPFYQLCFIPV
Sequence of Cytochrome P450 2D6 (P10635 whole entry): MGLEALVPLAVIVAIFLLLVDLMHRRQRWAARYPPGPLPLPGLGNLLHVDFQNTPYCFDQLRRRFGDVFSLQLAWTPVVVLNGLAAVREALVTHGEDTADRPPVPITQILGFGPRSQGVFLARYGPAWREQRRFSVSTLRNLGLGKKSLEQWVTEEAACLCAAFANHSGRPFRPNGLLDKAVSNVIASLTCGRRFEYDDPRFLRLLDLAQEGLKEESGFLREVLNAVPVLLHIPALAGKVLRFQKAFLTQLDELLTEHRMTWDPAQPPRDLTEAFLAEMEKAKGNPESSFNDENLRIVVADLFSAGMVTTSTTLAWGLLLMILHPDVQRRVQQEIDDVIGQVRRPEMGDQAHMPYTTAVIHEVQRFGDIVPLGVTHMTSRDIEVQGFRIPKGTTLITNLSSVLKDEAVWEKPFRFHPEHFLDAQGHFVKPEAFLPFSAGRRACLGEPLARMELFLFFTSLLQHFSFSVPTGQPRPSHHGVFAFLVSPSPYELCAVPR
Sequence of Cytochrome P450 3A4 (P08684 whole entry): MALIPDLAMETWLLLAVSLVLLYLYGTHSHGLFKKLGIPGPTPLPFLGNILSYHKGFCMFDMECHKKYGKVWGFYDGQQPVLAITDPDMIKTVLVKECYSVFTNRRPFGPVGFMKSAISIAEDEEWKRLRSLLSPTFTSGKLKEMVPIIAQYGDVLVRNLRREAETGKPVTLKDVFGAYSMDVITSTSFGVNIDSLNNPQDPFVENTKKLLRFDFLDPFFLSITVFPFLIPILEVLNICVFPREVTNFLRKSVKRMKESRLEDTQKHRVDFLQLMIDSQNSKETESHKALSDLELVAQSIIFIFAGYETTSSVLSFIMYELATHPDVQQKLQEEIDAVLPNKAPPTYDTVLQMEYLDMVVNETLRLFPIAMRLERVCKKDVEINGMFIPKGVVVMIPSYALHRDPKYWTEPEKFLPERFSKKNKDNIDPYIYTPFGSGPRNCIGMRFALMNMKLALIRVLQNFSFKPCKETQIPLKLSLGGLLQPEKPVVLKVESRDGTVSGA

For `C#C[C@]1(O)CC[C@H]2[C@@H]3[C@H](C)CC4=C(CCC(=O)C4)[C@H]3CC[C@@]21C` [TIBOLONE], on Estrogen receptor, the IC50 amounted to 433 nM and the Ki came to 124 nM. Further, the half-maximal inhibitory concentration (IC50) on Cytochrome P450 2C19 is 3000 nM.

As for `CCN(CC)C(=S)SSC(=S)N(CC)CC`, on Cytochrome P450 1A2, the IC50 was 4000 nM. Molecule `CCN(CC)CCNC(=O)c1cc(Cl)c(N)cc1OC` [METOCLOPRAMIDE] yielded an IC50 against Cytochrome P450 2D6 of 800 nM. For the molecule `CC(=O)O[C@]1(C(C)=O)CC[C@H]2[C@@H]3C[C@H](C)C4=CC(=O)CC[C@]4(C)[C@H]3CC[C@@]21C` [MEDROXYPROGESTERONE ACETATE], on Glucocorticoid receptor, the IC50 turned out to be 19 nM and affinity was put at a Ki of 8.64 nM.

Consider `CC[C@H](C)[C@@H](CO[C@@H](Cc1ccccc1)C(=O)N[C@@H](CCS(C)(=O)=O)C(=O)OC(C)C)NC[C@@H](N)CS`, for which the IC50 at Cytochrome P450 3A4 worked out at 3000 nM; against Cytochrome P450 2D6, 700 nM. As for `C=CCc1ccc2c(c1)OCO2` [SAFROLE], at Cytochrome P450 1A2, the IC50 came out at 10000 nM. Still for that read-out and setting: as for `O=C(OC[C@H]1O[C@@H](OC(=O)c2cc(O)c(O)c(OC(=O)c3cc(O)c(O)c(O)c3)c2)[C@H](OC(=O)c2cc(O)c(O)c(OC(=O)c3cc(O)c(O)c(O)c3)c2)[C@@H](OC(=O)c2cc(O)c(O)c(OC(=O)c3cc(O)c(O)c(O)c3)c2)[C@@H]1OC(=O)c1cc(O)c(O)c(OC(=O)c2cc(O)c(O)c(O)c2)c1)c1cc(O)c(O)c(OC(=O)c2cc(O)c(O)c(O)c2)c1` [TANNIC ACID], the figure is 919 nM.

As for `CCOC(=O)C1=C(C)NC(C)=C(C(=O)OCC)C1c1ccccc1/C=C/C(=O)OC(C)(C)C` [LACIDIPINE], on Cytochrome P450 2C19, the 50% inhibitory concentration (IC50) was found to be 2000 nM. At Androgen receptor, this molecule came in with an IC50 of 3920 nM and a Ki of 2610 nM. For `Nc1nc(N)c2nc(-c3ccccc3)c(N)nc2n1`, the IC50 at Cytochrome P450 2D6 stood at 10000 nM.

With `CCOc1cc(N)c(Cl)cc1C(=O)NCC1CN(Cc2ccc(F)cc2)CCO1` (configuration not stated) [MOSAPRIDE], the IC50 at Cytochrome P450 2C19 stood at 1000 nM; on Cytochrome P450 1A2 it was 400 nM.
